Read-outs that look alike come from different tables or passages of the source.
What was measured:
CI-AMPARs = biological target: T1, CI-AMPARs (Rattus norvegicus, UniProt P19491, Q607R); experiment: Whole-cell patch-clamp of kainate-induced currents in isolated hippocampal CA1 pyramidal neurons; format: cell-based, Wistar rat; conditions: for % block: representative recording; for inhibition at 30 µM: 30 µM phenytoin, n = 7; for inhibition at 100 µM: 100 µM phenytoin, read-out: % inhibition; for inhibition at 50 µM: n = 6
T1 construct: activity against native calcium-permeable AMPA receptors (CP-AMPARs) and calcium-impermeable AMPA receptors (CI-AMPARs); endogenous in cells; host or cells: acutely isolated pyramidal neurons from the CA1 area of Wistar rat hippocampal slices
Protocol: All experimental procedures were approved by the Animal Care and Use Committee of the I.M. Sechenov Institute of Evolutionary Physiology and Biochemistry of the Russian Academy of Sciences. Wistar rats (13–19 days old) were anesthetized with sevoflurane and then decapitated. Maximum effort was made to minimize the number of animals used. Brains were removed quickly and cooled to 2–4°C in an ice bath. […] The antagonism of CI-AMPARs was studied on pyramidal neurons from the CA1 area of the hippocampus.
Series resistance of about 20 MΩ was compensated by 70–80% and monitored during experiments. Currents were recorded using an EPC-8 amplifier (HEKA Electronics, Lambrecht, Germany), filtered at 5 kHz, sampled, and stored on a personal computer. Drugs were applied using the RSC-200 perfusion system (BioLogic Science Instruments, Claix, France) under computer control. The solution exchange time in the whole-cell mode was 50–60 ms. […] The pipette solution contained (in mM) CsF 100, CsCl 40, NaCl 5, CaCl2 0.5, EGTA 5, and HEPES 10 (pH was adjusted to 7.2 with CsOH). Experiments were performed at room temperature (22–24°C). […] Lamotrigine, topiramate, levetiracetam, felbamate, carbamazepine, tiagabin, vigabatrin, zonisamide, and gabapentin were purchased from Tocris Bioscience (Bristol, United Kingdom). Perampanel was from MedChemExpress (Stockholm, Sweden). Kinetics of transient processes of more than 20-ms duration was approximated by exponential functions. Experiments were performed at −80 mV holding voltage. All experimental data are presented as mean ± SD estimated from at least four experiments. Significance of the effects was tested with paired t test. Differences were considered significant at p < 0.05. 3D structures of compounds were calculated by the ZMM software (zmmsoft.ca).

[1] = biological target: non-NMDA glutamate receptors; set-up: method as in Kawano et al., 1994; conditions: expressed in Xenopus oocytes; ref Kawano et al., 1994; cited from earlier work
[2] = Solubility in the extracellular solution; format: physicochemical; conditions: concentrations above 500 µM could not be tested
Protocol: The whole-cell patch-clamp technique was used for recording of membrane currents generated in response to applications of kainate. Series resistance of about 20 MΩ was compensated by 70–80% and monitored during experiments. Currents were recorded using an EPC-8 amplifier (HEKA Electronics, Lambrecht, Germany), filtered at 5 kHz, sampled, and stored on a personal computer. Drugs were applied using the RSC-200 perfusion system (BioLogic Science Instruments, Claix, France) under computer control. The solution exchange time in the whole-cell mode was 50–60 ms. The extracellular solution contained (in mM) NaCl 143, KCl 5, MgCl2 2.0, CaCl2 2.5, D-glucose 18, and HEPES 10 (pH was adjusted to 7.3 with HCl). The pipette solution contained (in mM) CsF 100, CsCl 40, NaCl 5, CaCl2 0.5, EGTA 5, and HEPES 10 (pH was adjusted to 7.2 with CsOH). Experiments were performed at room temperature (22–24°C). […] Lamotrigine, topiramate, levetiracetam, felbamate, carbamazepine, tiagabin, vigabatrin, zonisamide, and gabapentin were purchased from Tocris Bioscience (Bristol, United Kingdom). Perampanel was from MedChemExpress (Stockholm, Sweden). Kinetics of transient processes of more than 20-ms duration was approximated by exponential functions. Experiments were performed at −80 mV holding voltage. […] 3D structures of compounds were calculated by the ZMM software (zmmsoft.ca).

[3] = biological target: non-NMDA glutamate receptors; set-up: method as in Phillips et al., 1997; conditions: neocortical wedges; ref Phillips et al., 1997; cited from earlier work
[4] = biological target: voltage-gated sodium channels; set-up: method as in Kuo and Bean, 1994; Lenkowski et al., 2007; conditions: ref Kuo and Bean, 1994; Lenkowski et al., 2007; read-out: Affinity to inactivated states of sodium channels; cited from earlier work
[5] = double-pulse protocol, 30-s pause

T1 sequence (P19491 22-883 Q607R): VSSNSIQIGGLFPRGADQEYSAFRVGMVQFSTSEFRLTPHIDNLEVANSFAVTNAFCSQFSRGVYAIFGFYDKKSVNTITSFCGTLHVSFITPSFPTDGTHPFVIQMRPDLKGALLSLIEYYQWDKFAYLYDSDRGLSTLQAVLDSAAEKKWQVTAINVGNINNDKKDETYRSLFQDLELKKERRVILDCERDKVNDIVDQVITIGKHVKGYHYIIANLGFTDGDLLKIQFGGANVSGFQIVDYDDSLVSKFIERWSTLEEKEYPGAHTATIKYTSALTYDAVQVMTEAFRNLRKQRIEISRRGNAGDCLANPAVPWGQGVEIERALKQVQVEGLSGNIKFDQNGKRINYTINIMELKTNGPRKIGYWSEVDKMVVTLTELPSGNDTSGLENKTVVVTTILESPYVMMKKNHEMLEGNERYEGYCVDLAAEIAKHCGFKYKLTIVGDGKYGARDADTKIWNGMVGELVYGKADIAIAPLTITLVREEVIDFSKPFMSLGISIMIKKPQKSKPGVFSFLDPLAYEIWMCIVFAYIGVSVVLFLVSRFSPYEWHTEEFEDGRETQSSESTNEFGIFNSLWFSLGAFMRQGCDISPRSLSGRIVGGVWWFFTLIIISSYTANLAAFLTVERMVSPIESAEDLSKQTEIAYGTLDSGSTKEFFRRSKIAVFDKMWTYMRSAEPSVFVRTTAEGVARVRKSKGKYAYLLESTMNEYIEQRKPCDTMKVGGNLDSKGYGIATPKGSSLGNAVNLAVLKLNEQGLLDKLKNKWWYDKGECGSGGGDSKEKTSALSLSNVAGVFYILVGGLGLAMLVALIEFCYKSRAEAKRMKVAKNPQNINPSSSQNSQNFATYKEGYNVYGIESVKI

In the case of `O=C1NC(=O)C(c2ccccc2)(c2ccccc2)N1` [Phenytoin], the “% block” value (CI-AMPARs; 10 μM phenytoin, Figure 1A) is reported as 28%, the inhibition at 30 µM (CI-AMPARs; 50 µM kainate) is reported as 55 ± 3% and the inhibition at 30 µM (CI-AMPARs; 500 µM kainate) is reported as 40 ± 7%. For the same compound, the “% block” value (CI-AMPARs; 30 μM phenytoin, Figure 1A) was 52%, the “Washout kinetics τ” value (CI-AMPARs; 50 µM phenytoin) was 1,100 ± 200 ms and the “Activity drop in the presence of cyclothiazide” value (CI-AMPARs; 100 µM cyclothiazide, 50 µM kainate) was “Yes”. For the same compound, the inhibition at 100 µM (CI-AMPARs; 50 µM kainate, absence of cyclothiazide) was 74 ± 4%, the inhibition at 100 µM (CI-AMPARs; 50 µM kainate, presence of 100 µM cyclothiazide) was 21 ± 7% and the “% block” value (CI-AMPARs; 100 μM phenytoin, Figure 1A) was 75%. For the same compound, the inhibition at 300 µM (CI-AMPARs; 300 µM compound, read-out: percentage of inhibition at 300-µM concentration) was at least 80%, the “τ of the testing response to kainate in the trapping protocol” value (CI-AMPARs; 300 µM phenytoin, 500 µM kainate, n = 4) was 81 ± 17 ms and the inhibition at 300 µM (CI-AMPARs; 300 µM phenytoin, coapplication with agonist, n = 5, read-out: % inhibition of open AMPA receptor channels) was 87 ± 5%. For the same compound, the inhibition at 300 µM (CI-AMPARs; 300 µM phenytoin, preapplication without agonist, n = 5, read-out: % inhibition of closed AMPA receptor channels) was 37 ± 7%, the “% block” value (CI-AMPARs; 300 μM phenytoin, Figure 1A) was 87% and the “inhibition of kainate-induced currents” value (CI-AMPARs; 500 µM phenytoin, highest concentration tested) was “almost complete inhibition”. For the same compound, the “Activity drop at high (500 µM) kainate concentration” value (CI-AMPARs; 50 vs 500 µM kainate) was “Yes”, the “decrease in the % of inhibition with the increase in agonist concentration” value (CI-AMPARs; 50 vs 500 µM kainate) was 10–15% and the “% block” value (CI-AMPARs; Phenytoin, 30 μM, Ka 50 μM, Figure 3A) was 57%. The “% block” value (CI-AMPARs; Phenytoin, 30 μM, Ka 500 μM, Figure 3A) was 44%, the “% block” value (CI-AMPARs; Phenytoin, 100 μM, Kainate, 50 μM + cyclothiazide, 100 μM, Figure 5C) was 19% and the “% block” value (CI-AMPARs; Phenytoin, 100 μM, Kainate, 50 μM, Figure 5B) was 74%. For the same compound, the “Difference in the % of inhibition in coapplication and preapplication protocols” value (CI-AMPARs; coapplication with kainate vs preapplication without kainate) was “Yes”, the “More active against CI-AMPARs” value (CI-AMPARs; comparison of CI-AMPARs and CP-AMPARs) was “Yes” and the “Trap in kainate 100 µM” value (CI-AMPARs; [5]) was “Yes”. The “Trap in kainate 500 µM” value (CI-AMPARs; [5]) was “questionable”, the “Trap in kainate 100 µM” value (CI-AMPARs; double-pulse protocol, 30-s pause, listed as phenytoin) was “pronounced trapping” and the Hill coefficient (CI-AMPARs; inhibition of CI-AMPARs, Hill equation) was 0.9 ± 0.2. For the same compound, the inhibition at 50 µM (CI-AMPARs; pH 7.4, 50 µM phenytoin, pH 7.4) was 60 ± 3%, the pH-dependence (CI-AMPARs; pH 7.4 vs 9.0) was “Yes” and the inhibition at 50 µM (CI-AMPARs; pH 9, 50 µM phenytoin, pH 9.0) was 28 ± 8%. For the same compound, the “% block” value (CI-AMPARs; phenytoin 50 μM, pH 7.4, Kainate, 100 μM, Figure 10A) was 62%, the “% block” value (CI-AMPARs; phenytoin 50 μM, pH 9.0, Kainate, 100 μM, Figure 10A) was 29% and the IC50 [1] was at least 100 µM. For the same compound, the “solubility in the extracellular solution” value [2] was “poor solubility”, the IC50 [3] was at least 100 µM and the Kd [4] was 7 to 21 µM.

Reference: article PMC8688955 (Frontiers in Pharmacology, 2021)
